This note sets out measurements from PubChem BioAssay (NCI).

Among the test systems are ACHN renal; HOP-62 NSCLC; HT29 colon; M14 melanoma; MDA-MB-435; OVCAR-5 ovarian; PC-3 prostate; SF-539 CNS; SNB-19 CNS; UACC-257 melanoma.
Common to all, as to experiment: NCI anticancer screen, dose series, 48 h

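Values below derive from 48-hour exposures of cells grown in 96-well plates, with endpoints linearly interpolated between the two concentrations bracketing the appropriate inhibition level. GI50 marks 50% less growth. The concentration for full growth arrest is given as TGI.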

Take `COc1ccc(-c2c(Nc3ccccn3)nc3c(C4=CCCCC4)c(-c4ccccc4)[nH]n3c2=O)cc1`: the GI50 is 2 µM in the assay on ACHN renal; 3.73 µM with HOP-62 NSCLC; 2.62 µM in the assay with HT29 colon; 1.23 µM in the assay with M14 melanoma; 2.71 µM in the assay with MDA-MB-435; 5.52 µM in the assay on OVCAR-5 ovarian. Moreover, the GI50 was 2.17 µM in the assay with PC-3 prostate, 2.81 µM with SF-539 CNS, 3.12 µM in the assay on SNB-19 CNS and 5 µM in the assay on UACC-257 melanoma. The TGI is 24.9 µM in the assay on ACHN renal; 22.9 µM with HOP-62 NSCLC; above 100 µM in the assay with HT29 colon; above 100 µM with M14 melanoma; above 100 µM in the assay with MDA-MB-435; above 100 µM with OVCAR-5 ovarian. Further, the TGI with PC-3 prostate is above 100 µM; in the assay with SF-539 CNS, 18.6 µM; in the assay with SNB-19 CNS, 17.2 µM; in the assay on UACC-257 melanoma it was 66.3 µM.
As to `O=c1c(Oc2ccc(F)cc2F)cc2cnc(NC3CCOCC3)nc2n1C1CC1`, the GI50 in the assay on ACHN renal, in the assay on HOP-62 NSCLC, in the assay on HT29 colon, with M14 melanoma, in the assay on MDA-MB-435 and with OVCAR-5 ovarian was above 25 µM throughout. Besides, the GI50 in the assay with PC-3 prostate, with SF-539 CNS, with SNB-19 CNS and in the assay with UACC-257 melanoma was above 25 µM throughout. For the same molecule, the TGI in the assay with ACHN renal, with HOP-62 NSCLC, with HT29 colon, in the assay on M14 melanoma, in the assay on MDA-MB-435 and with OVCAR-5 ovarian was above 25 µM throughout. Also, the TGI in the assay on PC-3 prostate, in the assay on SF-539 CNS, in the assay with SNB-19 CNS and with UACC-257 melanoma was above 25 µM throughout.
Regarding `NS(=O)(=O)c1cc2c(cc1Cl)NCNS2(=O)=O`, the TGI in the assay with ACHN renal, in the assay on HOP-62 NSCLC, with HT29 colon, in the assay on M14 melanoma, in the assay on MDA-MB-435 and in the assay on OVCAR-5 ovarian was above 100 µM throughout. Further, the TGI in the assay on PC-3 prostate, with SF-539 CNS, in the assay with SNB-19 CNS and in the assay on UACC-257 melanoma was above 100 µM throughout.
Regarding `COc1cc2c3c(n(CCCN)c(=O)c2cc1OC)-c1ccc(N)cc1C3=O`, the GI50 with ACHN renal was 5.9 µM; with HOP-62 NSCLC, 1.55 µM; in the assay with HT29 colon, 2.41 µM; with M14 melanoma it was 2.21 µM; in the assay on MDA-MB-435, 3.06 µM; in the assay on OVCAR-5 ovarian it was 7.87 µM. Further, the GI50 in the assay on PC-3 prostate was 1.19 µM; in the assay with SF-539 CNS it was 0.302 µM; in the assay with SNB-19 CNS it was 1.27 µM; in the assay on UACC-257 melanoma, 13.7 µM. Moreover, the TGI was 37.8 µM in the assay with ACHN renal; 4.92 µM in the assay with HOP-62 NSCLC; 18.2 µM in the assay with HT29 colon; 13.7 µM in the assay with M14 melanoma; 17 µM with MDA-MB-435; above 47.9 µM in the assay on OVCAR-5 ovarian. Further, the TGI in the assay with PC-3 prostate was 22.1 µM; with SF-539 CNS it was 1.61 µM; in the assay on SNB-19 CNS, 16.3 µM; with UACC-257 melanoma, 50.3 µM.
As for `OCc1ccc(N2CCc3ccc(F)cc3C2)cc1Cl`, the GI50 in the assay with ACHN renal was 10.4 µM; in the assay with HOP-62 NSCLC it was 0.29 µM; in the assay on HT29 colon, 0.229 µM; with M14 melanoma, 14.5 µM; in the assay on MDA-MB-435 it was 8.69 µM; with OVCAR-5 ovarian it was 0.0301 µM. Moreover, the GI50 in the assay with PC-3 prostate is 12.7 µM; with SF-539 CNS it was 15.9 µM; in the assay on SNB-19 CNS, 12.4 µM; in the assay with UACC-257 melanoma it was 0.0279 µM. In addition, the TGI with ACHN renal is 23 µM; in the assay on HOP-62 NSCLC, 15.5 µM; with HT29 colon, 6.61 µM; in the assay with M14 melanoma, 30 µM; in the assay on MDA-MB-435, 22 µM; in the assay on OVCAR-5 ovarian, 0.183 µM. In addition, the TGI in the assay with PC-3 prostate amounted to 27.4 µM; in the assay on SF-539 CNS it was 31 µM; with SNB-19 CNS, 27 µM; in the assay with UACC-257 melanoma it was 0.101 µM.
Consider `O=[N+]([O-])c1ccc(/C=C(/c2ccc([N+](=O)[O-])o2)S(=O)(=O)c2ccccc2)cc1`, for which the TGI in the assay on ACHN renal, in the assay with HOP-62 NSCLC, in the assay with HT29 colon, in the assay with M14 melanoma, in the assay on MDA-MB-435 and in the assay with OVCAR-5 ovarian was above 100 µM in each case. In addition, the TGI in the assay with PC-3 prostate is above 100 µM; in the assay on SF-539 CNS, 98.3 µM; in the assay on SNB-19 CNS, above 100 µM; with UACC-257 melanoma, above 100 µM.
As to `COc1ccc(Cn2c(Br)c3c(c2-c2cc(OC)c(OC)c(OC)c2)CCc2sc(N)nc2-3)cc1`, the GI50 in the assay on ACHN renal was 1.07 µM; in the assay with HOP-62 NSCLC, 1.33 µM; with HT29 colon, 0.731 µM; with M14 melanoma it was 1.36 µM; in the assay on MDA-MB-435 it was 0.224 µM; in the assay with OVCAR-5 ovarian, 4.26 µM. Also, the GI50 is 1.57 µM in the assay on PC-3 prostate, 1.16 µM in the assay with SF-539 CNS, 3.97 µM in the assay on SNB-19 CNS and 11.8 µM in the assay on UACC-257 melanoma. Besides, the TGI was 25.7 µM in the assay with ACHN renal; above 47 µM in the assay with HOP-62 NSCLC; 5.48 µM in the assay on HT29 colon; above 44.9 µM with M14 melanoma; 0.537 µM in the assay with MDA-MB-435; above 100 µM in the assay with OVCAR-5 ovarian. For the same molecule, the TGI in the assay with PC-3 prostate is above 100 µM; in the assay on SF-539 CNS, 10.5 µM; in the assay on SNB-19 CNS it was above 100 µM; in the assay on UACC-257 melanoma it was 51.3 µM.
With `CN(c1ccccc1)c1c2ccccc2nc2[nH]c3ccccc3c12`, the GI50 with ACHN renal was 1.43 µM; in the assay with HOP-62 NSCLC, 1.96 µM; in the assay on HT29 colon, 3.83 µM; with M14 melanoma, 2.21 µM; in the assay with MDA-MB-435, 3.26 µM; with OVCAR-5 ovarian, 12.6 µM. For the same molecule, the GI50 in the assay with PC-3 prostate is 2.78 µM; in the assay with SF-539 CNS, 1.91 µM; with SNB-19 CNS, 3.77 µM; with UACC-257 melanoma it was 6.54 µM. In addition, the TGI in the assay with ACHN renal was 3.2 µM; in the assay with HOP-62 NSCLC it was 5.97 µM; with HT29 colon, above 100 µM; in the assay with M14 melanoma it was 4.43 µM; in the assay on MDA-MB-435, 9.25 µM; with OVCAR-5 ovarian it was 39.5 µM. The TGI came to 14.7 µM in the assay on PC-3 prostate, 4.59 µM with SF-539 CNS, 15.5 µM in the assay with SNB-19 CNS and 21.4 µM in the assay with UACC-257 melanoma.
